The source of these data is PMC7824081, “Inhibition of DOT1L by Half-Selenopsammaplin A Analogs Suppresses Tumor Growth and EMT-Mediated Metastasis in Triple-Negative Breast Cancer” (Pharmaceuticals, 2020).

As usually defined, the IC50 is the concentration needed to halve the response being measured. Lower therefore signals higher potency.

The target in data set [1] is T1, DOT1L (Homo sapiens, UniProt Q8TEK3).
T1 construct: purchased BPS Bioscience 52202
The data set can be described thus: DOT1L enzyme activity assay (cell-free). The class given is biochemical. The conditions noted are these: 500 nM, 2 h, DOT1L 500 ng/well. Here is the method:
DOT1L enzyme activity was measured using 5 μM S-adenosyl methionine (SAM) as the methyl group donor, synthesized DOT1L substrate as the substrate, and 25 ng/μL DOT1L enzymes from BPS Bioscience (Cat. No. 52202; San Diego, CA, USA) according to the manufacturer’s instructions.

The test system of data set [2] is MDA-MB-231 TNBC cells. The data set can be described thus: SRB cell proliferation assay, MDA-MB-231. Format: cell-based, human. As to conditions: for IC50: 72 h, SRB assay; for Therapeutic Index: ratio of IC50 values between MCF10A and MDA-MB-231 cells. As to the method: (§1) Human breast epithelial cell line (MCF10A) and human TNBC cell lines (MDA-MB-468, MDA-MB-231, Hs578T, and HCC38 cells) were provided by the American Type Culture Collection (Manassas, VA, USA). MCF10A cells were cultured in Dulbecco’s Modified Eagle’s Medium/Nutrient Mixture F-12 containing 5% donor horse serum, 100 ng/mL cholera toxin, 10 µg/mL human insulin, 20 ng/mL epidermal growth factor, 0.5 µg/mL hydrocortisone, and penicillin-streptomycin (sodium penicillin G: 100 units/mL; streptomycin: 100 μg/mL). The TNBC cells were cultured in medium [Dulbecco’s Modified Eagle’s Medium for MDA-MB-468, MDA-MB-231, and Hs578T cells; Roswell Park Memorial Institute 1640 medium for HCC38 cells] supplemented with penicillin-streptomycin and 10% fetal bovine serum at 37 °C in a humidified incubator with 5% carbon dioxide. MCF10A cells were cultured in DMEM/F12 containing 5% donor horse serum, 100 ng/mL cholera toxin, 10 µg/mL human insulin, 20 ng/mL epidermal growth factor, 0.5 µg/mL hydrocortisone and penicillin-streptomycin. All reagents used for cell culture, including culture medium, fetal bovine serum, trypsin-EDTA solution (1×), and penicillin-streptomycin solution (100×), were purchased from Gibco (Grand Island, NE, USA). Laemmli sample buffer (2×) and 2-mercaptoethanol were purchased from Bio-Rad Laboratories, Inc. (Hercules, CA, USA). EPZ-5676 was purchased from Cayman Chemical (Ann Arbor, MI, USA). Dimethyl sulfoxide (DMSO), bicinchoninic acid, copper (II) sulfate solution, bovine serum albumin (BSA), trichloroacetic acid, sulforhodamine B (SRB), and paclitaxel were purchased from Sigma–Aldrich (St. Louis, MO, USA).
(§2) Cell proliferation was evaluated using the SRB assay. Briefly, cells were seeded in 96-well plates and incubated for 30 min (for 0-day controls) or treated with test compounds for the times indicated. After incubation, the cells were fixed, dried, and stained with 0.4% (w/v) SRB in 1% (v/v) acetic acid solution. Unbound dye was removed by washing, and stained cells were dissolved in 10 mM Tris (pH 10.0). Cell proliferation was then determined by measuring the absorbance at 515 nm.
(The SRB assay estimates cell density from bound dye.)

Data set [3] has as its system MCF10A normal breast epithelial cells. The data set can be described thus: SRB cell proliferation assay, MCF10A. Format: cell-based, human. The conditions noted are these: 72 h. Here is the method:
as §1, §2

Data set [4] relates to MDA-MB-231/Luc cells-implanted orthotopic mouse model. Put plainly: MDA-MB-231/Luc-implanted orthotopic mouse tumor model. Format: in vivo. The conditions noted are these: 30 mg/kg i.p., three times per week for 38 days. As to the method: All animal experiments were conducted following the guidelines approved by the Seoul National University Institutional Animal Care and Use Committee (IACUC; permission number: SNU-180430-4-1). Female nude mice (BALB/c-nu), 4 weeks old, were purchased from Central Laboratory Animal, Inc. (Seoul, Korea) and housed under pathogen-free conditions with a 12 h light-dark schedule. Luciferase expressing MDA-MB-231 cells were inoculated orthotopically into the fourth fat pad of mice (1 × 10^7 cells in 100 μL of 50:50 PBS/Matrigel) using a 29-gauge needle. Two weeks after implantation, mice were randomized into vehicle control and treatment groups of six animals per group and were administered with vehicle (EtOH/Cremophor/Normal saline = 5:5:90), 9l (10 or 30 mg/kg body weight), EPZ-5676 (30 mg/kg body weight), or paclitaxel (5 mg/kg body weight, Sigma-Aldrich) as a positive reference control. Compounds were administered intraperitoneally three times per week for 38 days. An additional week later, anesthetized mice were positioned in IVIS (PerkinElmer, Waltham, MA, USA) and were imaged 15 min after injection of 150 mg/kg D-luciferin (Gold Biotechnology, St. Louis, MO, USA) resuspended in DPBS (w/o calcium or magnesium). Mice were euthanized and primary tumors and lungs were excised, weighed, and frozen for further biochemical analysis. The length (L), width (W), and height (H) of the tumors were also measured using a digital slide caliper (Mitutoyo, Kawasaki, Japan) once a week, and tumor volumes (mm^3) were estimated by the formula LWH/2. Toxicity was evaluated based on body weight loss.
A portion of the frozen tumors excised from nude mice on the termination day of the experiment was homogenized using a hand-held homogenizer in complete lysis buffer (Active Motif, Carlsbad, CA, USA). Aliquots were stored at −80 °C, and the levels of protein expression in the tumor lysates were determined. The protein concentrations in the tumor lysates were measured using the Bradford assay.

Data set [5] can be described thus: Molecular stability in dichloromethane (TLC analysis). Format: physicochemical. The conditions noted are these: room temperature, 48 h. As to the method:
Figure S1. Thin layer chromatography analysis
Se-S bond analog (Figure 2, compound 9) was dissolved in dichloromethane at room
temperature. After 48 h, thin layer chromatography (TLC) analysis of the compound
9 was performed. (P : Compound 9, C : Co-spot, S : Diphenyl disulfide, SPA :
Compound 5b, eluent: [Hexane:EtOAc = 1:1] ).
(1 picture or pasted object on this page, not shown here)

T1 sequence (Q8TEK3 whole entry): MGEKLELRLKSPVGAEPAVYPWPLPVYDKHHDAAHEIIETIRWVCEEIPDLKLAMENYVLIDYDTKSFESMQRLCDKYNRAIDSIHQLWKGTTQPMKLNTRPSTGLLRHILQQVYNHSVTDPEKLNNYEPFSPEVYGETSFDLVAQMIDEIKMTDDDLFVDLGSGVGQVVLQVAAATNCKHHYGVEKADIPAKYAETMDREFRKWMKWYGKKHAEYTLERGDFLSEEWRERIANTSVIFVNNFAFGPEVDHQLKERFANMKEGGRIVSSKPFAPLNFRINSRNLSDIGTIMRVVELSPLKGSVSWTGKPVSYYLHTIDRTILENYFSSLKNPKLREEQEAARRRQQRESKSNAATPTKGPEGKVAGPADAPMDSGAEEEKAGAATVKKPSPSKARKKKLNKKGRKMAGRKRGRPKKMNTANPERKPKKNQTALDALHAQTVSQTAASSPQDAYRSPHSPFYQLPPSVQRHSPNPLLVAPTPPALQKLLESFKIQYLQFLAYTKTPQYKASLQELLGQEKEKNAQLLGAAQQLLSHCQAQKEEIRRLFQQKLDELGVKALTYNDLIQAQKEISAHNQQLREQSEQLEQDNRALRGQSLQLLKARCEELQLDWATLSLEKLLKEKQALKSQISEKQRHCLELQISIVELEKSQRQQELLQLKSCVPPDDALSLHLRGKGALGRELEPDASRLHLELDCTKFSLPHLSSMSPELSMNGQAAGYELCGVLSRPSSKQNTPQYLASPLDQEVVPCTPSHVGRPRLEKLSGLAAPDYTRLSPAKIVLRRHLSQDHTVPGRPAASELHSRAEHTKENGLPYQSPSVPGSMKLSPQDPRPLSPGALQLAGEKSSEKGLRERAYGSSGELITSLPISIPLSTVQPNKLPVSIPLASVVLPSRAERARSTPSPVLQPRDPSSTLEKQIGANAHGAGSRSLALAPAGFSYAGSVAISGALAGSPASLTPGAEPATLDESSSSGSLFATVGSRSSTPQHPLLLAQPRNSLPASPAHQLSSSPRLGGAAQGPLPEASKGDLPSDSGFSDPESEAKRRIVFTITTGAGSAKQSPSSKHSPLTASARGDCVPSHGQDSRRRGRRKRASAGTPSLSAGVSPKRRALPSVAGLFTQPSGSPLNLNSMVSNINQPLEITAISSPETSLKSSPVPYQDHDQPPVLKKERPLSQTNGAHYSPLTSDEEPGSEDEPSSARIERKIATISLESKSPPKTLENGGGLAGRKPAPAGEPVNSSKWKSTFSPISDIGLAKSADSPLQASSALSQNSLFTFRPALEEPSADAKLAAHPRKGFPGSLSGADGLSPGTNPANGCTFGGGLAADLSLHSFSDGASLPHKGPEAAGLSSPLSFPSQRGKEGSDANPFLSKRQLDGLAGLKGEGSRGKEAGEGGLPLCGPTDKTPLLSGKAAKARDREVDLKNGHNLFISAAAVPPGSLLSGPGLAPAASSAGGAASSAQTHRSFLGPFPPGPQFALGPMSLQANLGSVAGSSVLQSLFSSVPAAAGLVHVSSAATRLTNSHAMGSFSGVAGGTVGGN

For `O=C(NCC[Se]Sc1ccccc1)/C(Cc1ccc(O)c(Br)c1)=N/O` [9a, (E)-3-(3-Bromo-4-hydroxyphenyl)-2-(hydroxyimino)-N-(2-((phenylthio)selanyl)ethyl)propanamide], in data set [1], the “Inhibition of DOT1L enzyme activity” value is recorded as “significant inhibitory effects”. Moreover, the IC50 came to 0.21 µM in data set [2] (Homo sapiens, MDA-MB-231) and 17.2 µM in data set [3] (Homo sapiens, MCF-10A). Further, in data set [2], the “Therapeutic Index” value worked out at 82.10.

Take `O=C(NCC[Se]Sc1ccccc1)/C(Cc1ccccc1)=N/O` [9b, (E)-2-(Hydroxyimino)-3-phenyl-N-(2-((phenylthio)selanyl)ethyl)propanamide]: the “Inhibition of DOT1L enzyme activity” value in data set [1] was “significant inhibitory effects”. Further, the IC50 in data set [2] (Homo sapiens, MDA-MB-231) is 0.25 µM; in data set [3] (Homo sapiens, MCF-10A), 21.5 µM. Further, in data set [2], the “Therapeutic Index” value was 86.08.

For `O=C(NCC[Se]Sc1ccccc1)/C(Cc1ccc2ccccc2c1)=N/O` [9c, (E)-2-(Hydroxyimino)-3-(naphthalen-2-yl)-N-(2-((phenylthio)selanyl)ethyl)propanamide], the IC50 in data set [2] (Homo sapiens, MDA-MB-231) was determined as 0.46 µM; in data set [3] (Homo sapiens, MCF-10A) it was 28.2 µM. Further, the “Therapeutic Index” value in data set [2] amounted to 61.30.

With `O=C(NCC[Se]Sc1ccccc1)/C(Cc1ccc(F)cc1)=N/O` [9d, (E)-3-(4-Fluorophenyl)-2-(hydroxyimino)-N-(2-((phenylthio)selanyl)ethyl)propanamide], the IC50 in data set [2] (Homo sapiens, MDA-MB-231) worked out at 0.39 µM; in data set [3] (Homo sapiens, MCF-10A) it was 26 µM. Further, the “Therapeutic Index” value in data set [2] is given as 66.77.

In the case of `O=C(NCC[Se]Sc1ccccc1)/C(Cc1ccc(F)c(F)c1)=N/O` [9e, (E)-3-(3,4-Difluorophenyl)-2-(hydroxyimino)-N-(2-((phenylthio)selanyl)ethyl)propanamide], the IC50 turned out to be 0.43 µM in data set [2] (Homo sapiens, MDA-MB-231) and 23.3 µM in data set [3] (Homo sapiens, MCF-10A). In data set [2], the “Therapeutic Index” value stood at 54.23.

Turning to `O=C(NCC[Se]Sc1ccccc1)/C(Cc1ccc(Cl)cc1)=N/O` [9f, (E)-3-(4-Chlorophenyl)-2-(hydroxyimino)-N-(2-((phenylthio)selanyl)ethyl)propanamide], the 50% inhibitory concentration (IC50) in data set [2] (Homo sapiens, MDA-MB-231) amounted to 0.47 µM; in data set [3] (Homo sapiens, MCF-10A) it was 27.1 µM. The “Therapeutic Index” value in data set [2] is reported as 57.60.

`O=C(NCC[Se]Sc1ccccc1)/C(Cc1ccc(Cl)c(Cl)c1)=N/O` [9g, (E)-3-(3,4-Dichlorophenyl)-2-(hydroxyimino)-N-(2-((phenylthio)selanyl)ethyl)propanamide]: the IC50 in data set [2] (Homo sapiens, MDA-MB-231) came out at 0.33 µM; in data set [3] (Homo sapiens, MCF-10A), 22.7 µM. For the same compound, the “Therapeutic Index” value in data set [2] came out at 68.67.

With `O=C(NCC[Se]Sc1ccccc1)/C(Cc1ccc(Br)cc1)=N/O` [9h, (E)-3-(4-Bromophenyl)-2-(hydroxyimino)-N-(2-((phenylthio)selanyl)ethyl)propanamide], the concentration for half-maximal inhibition (IC50) is 0.4 µM in data set [2] (Homo sapiens, MDA-MB-231) and 29.1 µM in data set [3] (Homo sapiens, MCF-10A). Also, the “Therapeutic Index” value in data set [2] stood at 72.85.

Turning to `CCOc1ccc(C/C(=N\O)C(=O)NCC[Se]Sc2ccccc2)cc1` [9i, (E)-3-(4-Ethoxyphenyl)-2-(hydroxyimino)-N-(2-((phenylthio)selanyl)ethyl)propanamide], the 50% inhibitory concentration (IC50) in data set [2] (Homo sapiens, MDA-MB-231) was 0.17 µM; in data set [3] (Homo sapiens, MCF-10A), 21 µM. The “Therapeutic Index” value in data set [2] amounted to 123.65.

Regarding `O=C(NCC[Se]Sc1ccccc1)/C(Cc1ccc(OCc2ccccc2)cc1)=N/O` [9j, (E)-3-(4-(Benzyloxy)phenyl)-2-(hydroxyimino)-N-(2-((phenylthio)selanyl)ethyl)propanamide], the half-inhibitory concentration (IC50) in data set [2] (Homo sapiens, MDA-MB-231) came out at 0.18 µM; in data set [3] (Homo sapiens, MCF-10A) it was 19.5 µM. The “Therapeutic Index” value in data set [2] amounted to 108.22.

In the case of `O=C(NCC[Se]Sc1ccccc1)/C(Cc1ccc([N+](=O)[O-])cc1)=N/O` [9k, (E)-2-(Hydroxyimino)-3-(4-nitrophenyl)-N-(2-((phenylthio)selanyl)ethyl)propanamide], the IC50 in data set [2] (Homo sapiens, MDA-MB-231) is 0.19 µM; in data set [3] (Homo sapiens, MCF-10A), 18.2 µM. Also, the “Therapeutic Index” value in data set [2] is listed as 95.53.

Regarding `O=C(NCC[Se]Sc1ccccc1)/C(Cc1ccc(O)c(Cl)c1)=N/O` [9m, (E)-3-(3-Chloro-4-hydroxyphenyl)-2-(hydroxyimino)-N-(2-((phenylthio)selanyl)ethyl)propanamide], the IC50 in data set [2] (Homo sapiens, MDA-MB-231) was 0.25 µM; in data set [3] (Homo sapiens, MCF-10A), 17 µM. In addition, the “Therapeutic Index” value in data set [2] was determined as 68.08.

`O=C(NCC[Se]Sc1ccccc1)/C(Cc1ccc(O)c(F)c1)=N/O` [9n, (E)-3-(3-Fluoro-4-hydroxyphenyl)-2-(hydroxyimino)-N-(2-((phenylthio)selanyl)ethyl)propanamide]: the IC50 in data set [2] (Homo sapiens, MDA-MB-231) came out at 0.23 µM; in data set [3] (Homo sapiens, MCF-10A), 18.5 µM. For the same compound, the “Therapeutic Index” value in data set [2] is reported as 80.48.

With `CC(C)N(C[C@H]1O[C@@H](n2cnc3c(N)ncnc32)[C@H](O)[C@@H]1O)[C@H]1C[C@@H](CCc2nc3cc(C(C)(C)C)ccc3[nH]2)C1` [EPZ-5676, reference compound], the IC50 was above 50 µM in data set [2] (Homo sapiens, MDA-MB-231) and above 50 µM in data set [3] (Homo sapiens, MCF-10A). For the same compound, in data set [2] (at 50 μM), the “inhibition of proliferation of TNBC cells” value is on record as “not able to inhibit the proliferation”. For the same compound, the “effect on tumor growth” value in data set [4] is “did not affect tumor growth”.

On to `CC(=O)O[C@H]1C(=O)[C@@]2(C)[C@H]([C@H](OC(=O)c3ccccc3)[C@]3(O)C[C@H](OC(=O)[C@H](O)[C@@H](NC(=O)c4ccccc4)c4ccccc4)C(C)=C1C3(C)C)[C@]1(OC(C)=O)CO[C@@H]1C[C@@H]2O` [Paclitaxel, reference compound], for which the IC50 in data set [2] (Homo sapiens, MDA-MB-231) is 0.01 µM; in data set [3] (Homo sapiens, MCF-10A) it was 0.198 µM. Besides, the “Therapeutic Index” value in data set [2] was 19.80.

`CC(C)(C)c1ccc(CC(=NO)C(=O)NCCSSc2ccccc2)cc1` [PsA-3091, reference compound]: in data set [2], it took 1.98 µM to reach half-maximal inhibition (IC50) and the “Therapeutic Index” value was 68.99. In addition, in data set [3], the IC50 came to 137 µM.

In the case of `O=C(NCCSSCCNC(=O)/C(Cc1ccc(O)c(Br)c1)=N/O)/C(Cc1ccc(O)c(Br)c1)=N/O` [Psammaplin A (PsA), Psammaplin A], the “Inhibition of DOT1L enzyme activity” value in data set [1] is reported as “negligible DOT1L inhibition”. The IC50 was 2.82 µM in data set [2] (Homo sapiens, MDA-MB-231) and 32.7 µM in data set [3] (Homo sapiens, MCF-10A). The “Therapeutic Index” value in data set [2] was found to be 11.60.

`O=C(NCC[Se]Sc1ccccc1)/C(Cc1ccccc1)=N/O` [compound 9]: in data set [5], the molecular stability result is on record as “stable”.
